According to ChEMBL document CHEMBL4825736, “Design, synthesis and biological evaluation of naringenin carbamate derivatives as potential multifunctional agents for the treatment of Alzheimer's disease” (Bioorg Med Chem Lett, 2021):
Activity calls are given as the source filed them. No cut-off for these calls is given here.

Tests used:
[1] = Metal chelating activity assessed as compound-Fe3+ complex formation by measuring decrease in fluorescence intensity by fluorescence emission spectral analysis
[2] = Metal chelating activity assessed as compound-Cu2+ complex formation by fluorescence emission spectral analysis
[3] = Metal chelating activity assessed as Cu2+-complex formation by measuring inhibition of Cu2+ induced amyloid beta (1 to 42) aggregation at 25 uM by Thioflavin T based fluorometric assay
[4] = target: Amyloid-beta precursor protein (Homo sapiens) (UniProt P05067); experiment: Inhibition of amyloid beta (1 to 42) (unknown origin) self aggregation at 25 uM by Thioflavin T based fluorometric assay
Sequence of Amyloid-beta precursor protein (Homo sapiens) (P05067 whole entry): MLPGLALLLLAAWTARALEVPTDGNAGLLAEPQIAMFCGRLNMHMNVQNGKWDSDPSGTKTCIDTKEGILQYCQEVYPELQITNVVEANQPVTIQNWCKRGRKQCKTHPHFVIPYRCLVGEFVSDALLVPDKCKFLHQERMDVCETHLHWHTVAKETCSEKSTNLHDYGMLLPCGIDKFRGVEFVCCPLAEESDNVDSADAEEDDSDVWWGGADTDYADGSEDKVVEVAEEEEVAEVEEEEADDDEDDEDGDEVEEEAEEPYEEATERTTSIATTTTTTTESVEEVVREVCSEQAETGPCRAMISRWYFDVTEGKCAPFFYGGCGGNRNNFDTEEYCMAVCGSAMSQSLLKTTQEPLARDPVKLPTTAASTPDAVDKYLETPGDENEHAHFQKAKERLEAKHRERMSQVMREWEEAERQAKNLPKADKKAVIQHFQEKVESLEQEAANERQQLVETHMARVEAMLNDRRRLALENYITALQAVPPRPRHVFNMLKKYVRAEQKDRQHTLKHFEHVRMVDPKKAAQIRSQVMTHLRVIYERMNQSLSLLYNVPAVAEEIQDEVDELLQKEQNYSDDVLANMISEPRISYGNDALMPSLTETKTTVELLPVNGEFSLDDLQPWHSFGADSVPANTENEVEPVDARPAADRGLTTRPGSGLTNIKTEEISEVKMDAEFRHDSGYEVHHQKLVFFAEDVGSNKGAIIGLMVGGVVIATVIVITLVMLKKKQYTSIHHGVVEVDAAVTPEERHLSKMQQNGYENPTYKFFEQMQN

[5] = Metal chelating activity assessed as compound-Fe3+ complex formation by UV spectrophotometric analysis
Cholinesterase [6] = target: T1, Cholinesterase (Equus caballus, UniProt P81908)
T1 sequence (P81908 whole entry): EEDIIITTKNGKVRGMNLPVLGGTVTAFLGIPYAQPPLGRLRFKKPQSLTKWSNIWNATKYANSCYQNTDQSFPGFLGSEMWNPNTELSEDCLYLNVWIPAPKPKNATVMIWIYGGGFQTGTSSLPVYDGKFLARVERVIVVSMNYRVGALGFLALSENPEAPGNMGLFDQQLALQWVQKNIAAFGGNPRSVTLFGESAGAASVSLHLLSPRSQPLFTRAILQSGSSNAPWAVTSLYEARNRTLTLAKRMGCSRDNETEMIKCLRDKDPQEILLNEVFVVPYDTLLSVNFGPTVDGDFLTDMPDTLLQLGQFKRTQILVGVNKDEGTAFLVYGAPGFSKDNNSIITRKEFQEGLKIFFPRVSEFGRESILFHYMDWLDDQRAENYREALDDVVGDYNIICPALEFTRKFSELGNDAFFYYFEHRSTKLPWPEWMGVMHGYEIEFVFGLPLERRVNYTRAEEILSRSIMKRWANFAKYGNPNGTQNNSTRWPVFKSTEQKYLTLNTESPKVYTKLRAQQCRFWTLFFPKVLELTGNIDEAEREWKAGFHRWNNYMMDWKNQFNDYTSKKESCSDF
Description: Inhibition of equine serum BuChE by Ellman's method

Acetylcholinesterase = Acetylcholinesterase (Electrophorus electricus, UniProt O42275); experiment: Inhibition of electric eel AChE by Ellman's method
Sequence of Acetylcholinesterase (O42275 whole entry): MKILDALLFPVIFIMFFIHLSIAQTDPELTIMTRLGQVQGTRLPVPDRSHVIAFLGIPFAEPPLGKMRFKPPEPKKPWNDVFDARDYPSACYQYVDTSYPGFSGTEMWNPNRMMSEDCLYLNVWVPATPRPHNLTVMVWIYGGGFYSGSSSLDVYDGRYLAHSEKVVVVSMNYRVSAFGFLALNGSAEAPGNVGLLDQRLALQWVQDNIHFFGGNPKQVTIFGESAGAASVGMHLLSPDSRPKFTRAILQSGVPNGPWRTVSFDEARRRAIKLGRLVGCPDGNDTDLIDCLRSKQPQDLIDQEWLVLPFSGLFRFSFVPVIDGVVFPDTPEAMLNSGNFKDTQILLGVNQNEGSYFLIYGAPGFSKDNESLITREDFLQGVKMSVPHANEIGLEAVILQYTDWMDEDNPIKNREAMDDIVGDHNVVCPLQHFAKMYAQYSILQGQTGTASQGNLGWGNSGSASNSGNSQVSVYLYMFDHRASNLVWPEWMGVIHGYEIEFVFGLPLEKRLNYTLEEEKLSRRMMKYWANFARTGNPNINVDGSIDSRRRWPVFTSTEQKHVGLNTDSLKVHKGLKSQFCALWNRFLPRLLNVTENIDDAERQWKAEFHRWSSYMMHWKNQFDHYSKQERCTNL

[7] = Metal chelating activity assessed as compound-Zn2+ complex formation by measuring new peak formation by fluorescence emission spectral analysis
[8] = Metal chelating activity assessed as compound-Cu2+ complex formation by UV spectrophotometric analysis
[9] = Metal chelating activity assessed as compound-Zn2+ complex formation by UV spectrophotometric analysis
[10] = Antioxidant activity assessed as superoxide anion radical scavenging activity by measuring reduction in anode current by cyclic voltammetry; format: functional
[11] = target: Cholinesterase (Equus caballus) (UniProt P81908); experiment: Mixed type inhibition of equine serum BuChE assessed as decrease in Vmax with increase in Km by Lineweaver-Burk plot analysis; format: cell-free
Sequence of Cholinesterase (Equus caballus) (P81908 whole entry): as the sequence (P81908 whole entry) above

[12] = target: Cholinesterase (Equus caballus) (UniProt P81908); experiment: (§1) Mixed type inhibition of equine serum BuChE by double reciprocal analysis; format: cell-free
Cholinesterase [13] = target: T1, Cholinesterase; experiment: as §1; format: cell-free
[14] = Antioxidant activity assessed as superoxide anion radical scavenging activity by measuring reduction in cathode current by cyclic voltammetry; format: functional

SMILES	Activity [1]	Activity [2]	inhibition [3] [%]	inhibition [4] [%]	Activity [5]	IC50 (Cholinesterase [6]) [µM]	IC50 (Acetylcholinesterase) [µM]	Activity [7]	Activity [8]	Activity [9]	Activity [10]	inhibition [11]	Ks [12] [µM]	Ki (Cholinesterase [13]) [µM]	Activity [14]
CN(C)C(=O)Oc1ccc(C2CC(=O)c3c(O)cc(OC(=O)N(C)C)cc3O2)cc1 (centres undefined)	Active	inactive	53.5	62.4	Active	12.2	23.9	Active	Active	Active	–	–	–	–	–
CCN(C)C(=O)Oc1cc(O)c2c(c1)OC(c1ccc(O)cc1)CC2=O (centres undefined)	Active	inactive	65.5	66.5	–	3.42	28.3	Active	Active	Active	–	–	–	–	–
O=C1CC(c2ccc(O)cc2)Oc2cc(OC(=O)N3CCCCC3)cc(O)c21 (centres undefined)	Active	inactive	61.1	36.1	Active	0.094	62.5	Active	Active	Active	Active	Active	0.469	1.6	Active
COc1cc(/C=C/C(=O)CC(=O)/C=C/c2ccc(O)c(OC)c2)ccc1O	–	–	73.3	–	–	–	–	–	–	–	–	–	–	–	–
O=C1C[C@@H](c2ccc(O)cc2)Oc2cc(O)cc(O)c21 [NARINGENIN]	–	–	69.2	44.9	–	> 100	> 100	–	–	–	Active	–	–	–	Active
O=C1CC(c2ccc(O)cc2)Oc2cc(OC(=O)N3CCOCC3)cc(O)c21 (centres undefined)	Active	inactive	60.9	62.3	–	13.7	12.9	Active	Active	–	–	–	–	–	–
